According to a melting point compilation (Tetko et al.):

Row | SMILES | melting point [°C]
1 | Cc1cc(Oc2ccc(N)cc2)n[nH]1 | 189 to 191
2 | Cc1nn(-c2ccc(F)cc2)c2sc(C(=O)O)cc12 | 205 to 210
3 | Clc1cn[nH]c1 | 65 to 67
4 | CCOc1cc(C=CC(=O)O)ccc1OCC(C)C | 72 to 74
5 | CC(C)Cn1cnnc1C1CCCN1 (stereo not drawn) | 54 to 56
6 | CC(C)(C)c1ccc(SCC(=O)O)cc1 | 65 to 67
7 | CCC(C)n1ncc2c(C(=O)O)cc(C3CC3)nc21 (stereo not drawn) | 134 to 136
8 | CCn1c(Cl)nnc1-c1ccccc1Cl | 123 to 125
9 | CC1CCC(C(=O)O)C2C(=O)N(c3ccccc3)C(=O)C12 (stereo not drawn) | 182 to 184
10 | CC(C)NC(=O)c1ccccc1N | 148 to 150
11 | Cc1sc2ncn(CCC(=O)O)c(=O)c2c1C | 194 to 196
12 | CSc1ccc(-c2csc(N)n2)cc1 | 219 to 221
13 | O=C1CCC(=O)N1CCBr | 53 to 55
14 | CC(C)C(C(N)=O)c1cccnc1 (stereo not drawn) | 176 to 178
15 | CC(Cl)c1cccc([N+](=O)[O-])c1 (stereo not drawn) | 33 to 35
16 | O=C(O)C1CCCN1Cc1ccc(F)cc1 (stereo not drawn) | 242 to 244
17 | COc1ccccc1SCC(=O)O | 99 to 101
18 | N#Cc1cc2c([nH]c1=O)CCN(Cc1ccccc1)C2 | 218 to 220
19 | CC1(c2ccccn2)NC(=O)NC1=O (stereo not drawn) | 170 to 172
20 | N#Cc1cccnc1Oc1ccccc1N | 171 to 173
21 | CC(C)(C)OC(=O)N1CCC(CCC(=O)O)CC1 | 99 to 101
22 | O=C(O)CCC1NC(=O)NC1=O (stereo not drawn) | 169 to 171
23 | O=C(CCl)c1ccc(O)cc1O | 108 to 110
24 | O=C(O)C=Cc1cncc(O)c1 | 243 to 245

Row | SMILES | melting point [°C]
25 | CS(=O)(=O)N1CCCC(C(=O)O)C1 (stereo not drawn) | 107 to 109
26 | Cc1nnc(NCCC(C)C)c2ccccc12 | 129 to 131
27 | O=C(O)c1cn(-c2ccccc2)nc1-c1ccc(Cl)cc1 | 246 to 248
28 | COc1ccc(C(=O)O)cc1OCc1ccncc1 | 201 to 203
29 | O=S(=O)(CCCl)c1cc(Cl)ccc1Cl | 80 to 82
30 | O=C(O)CNC(=O)c1ccc(S(=O)(=O)Cl)cc1 | 130 to 132
31 | CC(C)(C)OC(=O)N1CCc2c(N)cccc2C1 | 122 to 124
32 | CC(C(O)c1ccccc1)N(C)S(=O)(=O)c1ccc([N+](=O)[O-])cc1 (stereo not drawn) | 132 to 134
33 | O=C(O)c1csc(-c2cnn(-c3ccccc3)n2)n1 | 239 to 241
34 | O=C(O)c1ccc(C2CCCOC2)cc1 (stereo not drawn) | 166 to 168
35 | Cc1ccc2cc(C(=O)O)c(C)nc2c1 | 197 to 199
36 | Nc1nc2ccc(Br)cc2s1 | 119 to 121
37 | O=C(O)c1cc([N+](=O)[O-])c(F)cc1I | 158 to 160
38 | CC(=O)NCCCCCC(N)=O | 112 to 114
39 | CC1CCCN(c2ccccc2O)C1 (stereo not drawn) | 44 to 46
40 | Cn1nc(-c2ccccn2)c(-c2ccc(F)cc2)c1N | 164 to 166
41 | COc1cc(C=O)ccc1Oc1ccc(S(=O)(=O)N2CCCCC2)cc1[N+](=O)[O-] | 173 to 175
42 | COC(=O)c1[nH]n(-c2ccc(C(=O)O)cc2)c(=O)c1CCO | 233 to 235
43 | Cc1ccc(NC(=O)C(Cl)c2ccccc2)cc1 (stereo not drawn) | 143 to 147
44 | Cc1ccc(C#N)c(N2CCOCC2)c1 | 86 to 88
45 | O=C(CCl)Nc1ccccc1C(=O)Nc1ccc2c(c1)OCO2 | 169 to 171
46 | O=C(O)C1CCCN1C(=O)c1ccncc1 (stereo not drawn) | 79 to 81
47 | Cc1ccc(-c2cc(C(=O)O)n[nH]2)s1 | 209 to 211
48 | COc1ccc(Oc2c(F)cc(CCl)cc2F)cc1 | 62 to 64

Row | SMILES | melting point [°C]
49 | O=Cc1c[nH]c2ncccc12 | 211 to 213
50 | CNS(=O)(=O)c1ccc(Cl)c(C(=O)O)c1 | 171 to 173
51 | Cn1cccc1C(=O)CCl | 30 to 40
52 | CC(=O)Nc1cc(C)nn1CCC#N | 159 to 161
53 | NCC(c1ccccc1)c1c[nH]c2ccccc12 (stereo not drawn) | 123 to 125
54 | O=C(O)c1cc(N2CCNC2=O)c(F)cc1F | 246 to 248
55 | CC(C)(C)OC(=O)NC1CCN(C2CCNC2)CC1 (stereo not drawn) | 108 to 110
56 | CN(CCS(=O)(=O)F)S(=O)(=O)c1ccc(F)cc1 | 129 to 131
57 | CC(Cc1ccccc1Cl)C(=O)O (stereo not drawn) | 56 to 58
58 | Fc1ccc(-c2nc(CCl)cs2)cc1 | 54 to 56
59 | CCCCCCCOc1ccc(C=O)cc1OCC | 43 to 47
60 | O=c1c2ccccc2nc2n1CCO2 | 160 to 163
61 | CN(CCCC(=O)O)C(=O)c1cc(S(N)(=O)=O)cn1C | 173 to 175
62 | Nc1cccc2[nH]ncc12 | 145 to 147
63 | N#Cc1ccccc1Oc1ccc(CCl)cc1 | 54 to 56
64 | Cc1ccc(OCCC(=O)O)cc1C | 155 to 157
65 | CC(Oc1cccc(F)c1)C(=O)O (stereo not drawn) | 95 to 97
66 | CCN(CC)S(=O)(=O)c1ccc(Cl)nc1 | 82 to 84
67 | NC(=O)CCc1ccc(F)c(F)c1 | 99 to 101
68 | O=c1cc(CCl)nc2sccn12 | 180 to 182
69 | NC(=O)c1cc(-c2cccs2)on1 | 190 to 192
70 | CSc1cc(C)ccc1C(=O)O | 176 to 178
71 | O=C(O)c1ccnc2ncnn12 | 259 to 261
72 | O=C(O)C1=Cc2cccc(O)c2OC1 | 233 to 235

Row | SMILES | melting point [°C]
73 | CCOC(=O)/C(=C(\O)CCl)c1nc(C)cs1 | 76 to 78
74 | N#CCC(=O)Nc1ncccn1 | 159 to 161
75 | Nc1ccc(CC2NC(=O)NC2=O)cc1 (stereo not drawn) | 152 to 154
76 | N=c1nc(S)ss1 | 192 to 196
77 | O=C(O)c1ccc(-c2cccc3ccccc23)s1 | 249 to 251
78 | Cc1ncsc1C(=O)Cl | 62 to 64
79 | CNc1nc2ccccc2o1 | 99 to 101
80 | CSCc1ccc(C(=O)O)cc1 | 145 to 147
81 | O=C(O)CC1=NN(c2ncc(C(F)(F)F)cc2Cl)C(=O)C1 | 173 to 175
82 | O=Cc1cc(Br)ccc1OCc1ccccn1 | 138 to 140
83 | Nc1nc(CCl)nc2oc(-c3ccccc3)c(-c3ccccc3)c12 | 201 to 203
84 | O=c1cc(O)c2ccccc2o1 | 211 to 215
85 | O=C(NC1CC1)C(Cl)c1ccc(F)cc1 (stereo not drawn) | 135 to 137
86 | Cc1ccc(S(=O)(=O)OCC2CCOCO2)cc1 (stereo not drawn) | 63 to 65
87 | CC1=NS(=O)(=O)NC(C)=C1CC(=O)O | 185 to 187
88 | CCOC(=O)c1cc(C2CC2)[nH]n1 | 98 to 100
89 | O=C(O)C1CCN(C(=O)c2ccccn2)CC1 | 146 to 148
90 | O=C1CCC(O)(C(F)(F)F)CC1 | 123 to 125
91 | Cc1c(N)cc(C(N)=O)cc1F | 188 to 190
92 | O=C(O)CNC(=O)c1ncccc1O | 234 to 236
93 | O=C(CCl)Nc1ccnn1Cc1ccccc1 | 99 to 101
94 | O=C(O)c1cc2c(cc1Cl)N1CCCCCC1=NS2(=O)=O | 251 to 253
95 | Cn1ccnc1Sc1ccc(C=O)cc1[N+](=O)[O-] | 173 to 175
96 | O=[N+]([O-])c1c[nH]ccc1=NCC1CCCO1 (stereo not drawn) | 72 to 74

Row | SMILES | melting point [°C]
97 | CC(C)(C)c1cc(C(=O)O)[nH]n1 | 195 to 197
98 | CNCCCc1cc(-c2ccccc2)n[nH]1 | 98 to 100
99 | CC(C)(C)c1cc(N)n(C(C)(C)C)n1 | 69 to 71
100 | Nc1ccccc1C(=O)Nc1ccc(F)cc1Cl | 103 to 105
101 | c1cc2c(cn1)NCCN2 | 135 to 137
102 | Cc1cc(C)c2c(C)nn(-c3ccc(N)cc3)c2n1 | 104 to 106
103 | Cc1ccc(-n2cc(C(=O)O)c(-c3ccccc3)n2)cc1 | 194 to 196
104 | CS(=O)(=O)c1ccc(N)cn1 | 171 to 173
105 | CCC(=CC(=O)O)c1cccc(Cl)c1 | 79 to 81
106 | CN1C(=O)C(=O)N(CC(=O)O)C1=O | 191 to 193
107 | O=C(O)c1ccc(Cl)c(S(=O)(=O)Nc2ccccc2Cl)c1 | 213 to 215
108 | O=C(O)c1ccc(-n2ncc(Cl)c(Cl)c2=O)cc1 | 314 to 316
109 | Cn1c(-c2ccccc2)cnc1SCC(=O)O | 199 to 201
110 | Nc1ccc(C(O)c2ccccc2)cc1[N+](=O)[O-] (stereo not drawn) | 120 to 122
111 | O=S(=O)(Nc1cccc(Br)c1)c1ccccc1 | 116 to 118
112 | Ic1cnc2ccccc2c1 | 57 to 59
113 | CCOC(=O)Cc1csc(NC(=O)OCC(F)(F)F)n1 | 120 to 122
114 | NC1(c2nn[nH]n2)CCCC1 | 229 to 231
115 | O=C(O)Cc1ccc(S(=O)(=O)Cl)s1 | 85 to 87
116 | NNC(=S)Nc1cc(S(=O)(=O)N2CCOCC2)ccc1Cl | 181 to 183
117 | CCc1cc(O)ncn1 | 135 to 137
118 | CC(Cl)C(=O)Nc1cccc(Cl)c1Cl (stereo not drawn) | 96 to 98
119 | O=C1CCCCCN1CO | 63 to 67
120 | Oc1ccc(Cl)cc1-c1cc(-c2ccco2)[nH]n1 | 166 to 168

Row | SMILES | melting point [°C]
121 | Cc1cc(O)nc(-c2ccc(-c3ccccc3)cc2)n1 | 275 to 277
122 | N#CCc1c[nH]c2cc(F)ccc12 | 52 to 54
123 | Nc1cc(Cl)c(Cl)nc1N | 149 to 151
124 | COC(=O)c1nc(Cl)ccc1Cl | 53 to 55
125 | CSc1nc2cnccc2o1 | 85 to 87
126 | CCn1c(C(=O)O)cc2ccccc21 | 177 to 179
127 | O=C(O)c1cc(N2CCCC2=O)cc(C(F)(F)F)c1 | 188 to 190
128 | O=C(c1cnc(Cl)c(Cl)c1)N1CCOCC1 | 78 to 80
129 | Nc1ccc(F)c(S(=O)(=O)Nc2ccc(Br)cc2)c1 | 161 to 163
130 | Cn1c(C(=O)O)c(Cl)c2cc(Br)ccc21 | 250 to 252
131 | O=Cc1cnn(CC(F)(F)F)c1 | 56 to 58
132 | Cc1nc(-c2ccc(C(C)N)cc2)cs1 (stereo not drawn) | 74 to 76
133 | CC(C)(C)OC(=O)N1CCC(NCC(F)(F)F)CC1 | 51 to 53
134 | CN(C)c1ccc(C#N)c(N)c1 | 109 to 111
135 | CSc1nsc(N)n1 | 146 to 148
136 | Cc1nnc(CO)o1 | 129 to 131
137 | Cc1ccc(S(=O)(=O)N2CCCCC2)cc1C(=O)O | 197 to 199
138 | O=C(O)CNc1cccc(Cl)c1 | 174 to 176
139 | COC(=O)c1cc(Cl)nc2ccccc12 | 87 to 89
140 | CCc1cnc(N)s1 | 54 to 56
141 | O=C(O)CCc1nc(-c2ncccn2)no1 | 202 to 204
142 | CN(C(=O)c1ccc(N)cc1)C1CCCCC1 | 176 to 178
143 | CCOC(=O)c1sc(N)c(C(N)=O)c1C | 197 to 199
